ChEMBL document CHEMBL1201862, “PubChem BioAssay data set” (2004)
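In this assay, cells in 96-well plates receive the compound at five concentrations for 48 hours. Endpoints are linearly interpolated between the surrounding concentrations. At the GI50, growth is halved.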 Activity calls are given as the source filed them. No stated cut-off is given here; in the data, active = GI50 up to about 1.1 µM and inactive = higher.

Key:
Experiment in all cases: NCI anticancer screen, dose series, 48 h
[1] = tested on: CCRF-CEM
[2] = tested on: SNB-19
[3] = tested on: UACC-257
[4] = tested on: SF-539
[5] = tested on: RPMI-8226
[6] = tested on: SNB-78
[7] = tested on: COLO 205
[8] = tested on: NCI-H23
[9] = tested on: TK-10
[10] = tested on: A549
[11] = tested on: SNB-75
[12] = tested on: IGROV-1
[13] = tested on: HCT-116
[14] = tested on: OVCAR-5
[15] = tested on: PC-3
[16] = tested on: Hs-578T
[17] = tested on: MDA-N
[18] = tested on: T47D
[19] = tested on: MCF7
[20] = tested on: DU-145

Structure (SMILES)	GI50 [1]	GI50 [2]	GI50 [3]	GI50 [4]	GI50 [5]	GI50 [6]	GI50 [7]	GI50 [8]	GI50 [9]	GI50 [10]	GI50 [11]	GI50 [12]	GI50 [13]	GI50 [14]	GI50 [15]	GI50 [16]	GI50 [17]	GI50 [18]	GI50 [19]	GI50 [20]
CC(=O)OC1COC(N2CCc3cc([N+](=O)[O-])ccc32)C(OC(C)=O)C1OC(C)=O (stereo not given)	> 100 µM (inactive)	> 100 µM (inactive)	> 100 µM (inactive)	> 100 µM (inactive)	> 100 µM (inactive)	> 100 µM (inactive)	> 100 µM (inactive)	> 100 µM (inactive)	> 100 µM (inactive)	> 100 µM (inactive)	> 100 µM (inactive)	> 100 µM (inactive)								
CC(=O)OC1(C#N)CC2OC1C1C2N1C(=O)c1ccccc1 (stereo not given)	> 100 µM (inactive)	> 100 µM (inactive)		> 100 µM (inactive)	> 100 µM (inactive)	> 100 µM (inactive)	> 100 µM (inactive)	> 100 µM (inactive)	> 100 µM (inactive)	> 100 µM (inactive)	> 100 µM (inactive)	> 100 µM (inactive)	> 100 µM (inactive)	> 100 µM (inactive)						
N#CC(C(=O)CCC(=O)Nc1cccc(Cl)c1)c1ccccc1 (stereo not given)	> 100 µM (inactive)	4.05 µM (inactive)	> 100 µM (inactive)	> 100 µM (inactive)	> 100 µM (inactive)	> 100 µM (inactive)	> 100 µM (inactive)	> 100 µM (inactive)	> 100 µM (inactive)	> 100 µM (inactive)	> 100 µM (inactive)	> 100 µM (inactive)	> 100 µM (inactive)	> 100 µM (inactive)						
CCCOC(=O)C1C(c2ccc(OC)cc2)NC(c2ccc(OC)cc2)C(C(=O)OCCC)S1(=O)=O (stereo not given)	> 10 µM (inactive)	> 10 µM (inactive)	> 10 µM (inactive)	> 10 µM (inactive)	> 10 µM (inactive)	> 10 µM (inactive)	> 10 µM (inactive)	> 10 µM (inactive)	> 10 µM (inactive)	> 10 µM (inactive)	> 10 µM (inactive)	> 10 µM (inactive)	> 10 µM (inactive)	> 10 µM (inactive)						
O=c1nc2occc2cn1C1CC(O)C(CO)O1 (stereo not given)	> 100 µM (inactive)	> 100 µM (inactive)	> 100 µM (inactive)	> 100 µM (inactive)	> 100 µM (inactive)	> 100 µM (inactive)	> 100 µM (inactive)	> 100 µM (inactive)	> 100 µM (inactive)	> 100 µM (inactive)	> 100 µM (inactive)	> 100 µM (inactive)	> 100 µM (inactive)	> 100 µM (inactive)						
CCCCN[C@H]1C2C3CC4C5CC(C42)C1(C)C53 (stereo not given in full)	> 100 µM (inactive)	> 100 µM (inactive)	> 100 µM (inactive)	> 100 µM (inactive)	> 100 µM (inactive)	> 100 µM (inactive)	> 100 µM (inactive)		> 100 µM (inactive)	> 100 µM (inactive)	> 100 µM (inactive)	> 100 µM (inactive)	> 100 µM (inactive)	> 100 µM (inactive)						
Cc1cc(NCCCCCCCNc2cc(C)nc3cc(N)ccc23)c2ccc(N)cc2n1	15.6 µM (inactive)	47.2 µM (inactive)	47.6 µM (inactive)	27 µM (inactive)	14.8 µM (inactive)	40.3 µM (inactive)	14 µM (inactive)	30.8 µM (inactive)	> 100 µM (inactive)	29.9 µM (inactive)	25.2 µM (inactive)		27.6 µM (inactive)	> 100 µM (inactive)						
N/N=C1\C(=O)N(c2ccc(Cl)c(Cl)c2)C(=O)C1C(=O)Nc1ccc(Cl)c(Cl)c1 (stereo not given)	34.4 µM (inactive)	28.2 µM (inactive)	71 µM (inactive)	79.6 µM (inactive)	> 100 µM (inactive)	24.7 µM (inactive)		40.6 µM (inactive)	> 100 µM (inactive)	42.9 µM (inactive)	> 100 µM (inactive)	73.8 µM (inactive)	75.2 µM (inactive)	88.7 µM (inactive)						
CC(=O)/C=C1/c2ccccc2N(C(C)=O)C1O (stereo not given)	> 100 µM (inactive)	> 100 µM (inactive)	> 100 µM (inactive)	> 100 µM (inactive)	> 100 µM (inactive)	> 100 µM (inactive)	> 100 µM (inactive)	> 100 µM (inactive)		> 100 µM (inactive)	> 100 µM (inactive)	> 100 µM (inactive)	> 100 µM (inactive)							
O=C1NC(=S)NC(=O)C1=Cc1cc2c(cc1[N+](=O)[O-])OCO2	55.3 µM (inactive)	> 100 µM (inactive)	> 100 µM (inactive)	83.2 µM (inactive)	42.2 µM (inactive)	> 100 µM (inactive)	> 100 µM (inactive)		> 100 µM (inactive)	> 100 µM (inactive)	> 100 µM (inactive)	> 100 µM (inactive)	54.1 µM (inactive)							
C=C(CN(C)C)C(=O)c1cc(C)ccc1C	0.345 µM (active)	19.9 µM (inactive)	7.96 µM (inactive)	8.91 µM (inactive)	1.42 µM (inactive)	26.9 µM (inactive)	1.58 µM (inactive)	11.4 µM (inactive)	8.95 µM (inactive)	19.7 µM (inactive)	17.2 µM (inactive)	18 µM (inactive)	4.7 µM (inactive)	14.8 µM (inactive)	14.1 µM (inactive)	28.7 µM (inactive)	6.84 µM (inactive)	4.11 µM (inactive)	2.96 µM (inactive)	14.4 µM (inactive)
CNC(=S)OCCC(C)CCCC(C)C (stereo not given)	19.4 µM (inactive)	16.9 µM (inactive)	16.4 µM (inactive)	16.8 µM (inactive)	10.8 µM (inactive)	18.8 µM (inactive)		18.8 µM (inactive)	12.8 µM (inactive)	16.3 µM (inactive)	20.8 µM (inactive)	17.3 µM (inactive)	16.7 µM (inactive)	11.3 µM (inactive)						
COC(=O)c1ccc(N/C=C(/C#N)c2ccsc2)cc1	> 100 µM (inactive)	12.2 µM (inactive)	32.6 µM (inactive)	15.9 µM (inactive)	20.7 µM (inactive)	15 µM (inactive)	67.1 µM (inactive)	10.7 µM (inactive)	16.8 µM (inactive)	15.4 µM (inactive)	6.68 µM (inactive)	27.1 µM (inactive)	8.57 µM (inactive)	> 100 µM (inactive)						
CC12Nc3ccccc3C1=C(c1ccccc1)CC1C(=O)OC(=O)C12 (stereo not given)	> 100 µM (inactive)	> 100 µM (inactive)	> 100 µM (inactive)	> 100 µM (inactive)	> 100 µM (inactive)	> 100 µM (inactive)	> 100 µM (inactive)	> 100 µM (inactive)	> 100 µM (inactive)	> 100 µM (inactive)	1.86 µM (inactive)	> 100 µM (inactive)	> 100 µM (inactive)	> 100 µM (inactive)						
O=C1CCC(=O)N1Sc1ccccc1	42.4 µM (inactive)	> 100 µM (inactive)	> 100 µM (inactive)	> 100 µM (inactive)	> 100 µM (inactive)	> 100 µM (inactive)	> 100 µM (inactive)	> 100 µM (inactive)	> 100 µM (inactive)	> 100 µM (inactive)	72.9 µM (inactive)	> 100 µM (inactive)	> 100 µM (inactive)							
COc1ccc(C2=C(Cl)c3cc(OC)c(OC)cc3C2OC)cc1OC (stereo not given)	50.2 µM (inactive)	> 100 µM (inactive)	> 100 µM (inactive)	65.2 µM (inactive)	23.8 µM (inactive)	> 100 µM (inactive)	26.9 µM (inactive)	> 100 µM (inactive)	> 100 µM (inactive)	> 100 µM (inactive)	> 100 µM (inactive)	> 100 µM (inactive)	95.7 µM (inactive)	> 100 µM (inactive)						
COc1ccc(/C=C2/C(=O)N(C(=O)c3ccccc3O)N=C2C)cc1OC	0.337 µM (active)		1.42 µM (inactive)	0.241 µM (active)	1.72 µM (inactive)	0.0453 µM (active)	26.7 µM (inactive)	0.248 µM (active)	10.8 µM (inactive)	0.33 µM (active)		0.133 µM (active)	0.275 µM (active)	3.9 µM (inactive)	2.37 µM (inactive)		0.489 µM (active)		0.361 µM (active)	0.643 µM (active)
O=CN/C=C/c1cccc(O)c1	61.1 µM (inactive)	70.1 µM (inactive)	63.7 µM (inactive)	57.3 µM (inactive)	> 71.9 µM (inactive)	> 100 µM (inactive)	> 77.3 µM (inactive)	52.4 µM (inactive)	88.3 µM (inactive)	54.5 µM (inactive)	> 69.3 µM (inactive)	55 µM (inactive)	52.7 µM (inactive)	74.6 µM (inactive)	56.6 µM (inactive)	> 55.2 µM (inactive)	46 µM (inactive)	63.4 µM (inactive)	> 34 µM (inactive)	57.5 µM (inactive)
NCCCNc1ccc2c3c(nn2CCNCCO)-c2c(O)ccc(O)c2C(=O)c13		0.354 µM (active)	5.81 µM (inactive)		1.2 µM (inactive)	1.42 µM (inactive)	1.44 µM (inactive)	1.25 µM (inactive)	4.2 µM (inactive)		0.889 µM (active)	2.46 µM (inactive)		4.28 µM (inactive)	2.84 µM (inactive)	0.787 µM (active)	2.75 µM (inactive)	2.18 µM (inactive)	0.418 µM (active)	1.29 µM (inactive)
